Reference: US8178506B2, “Oligomeric compounds and compositions for use in modulation of small non-coding RNAs” (Regulus Therapeutics Inc., priority 2003, dated 2012)
In the oligonucleotide strings, read from the 5' end, every base follows the letter of its sugar. An asterisk marks phosphorothioate; unmarked linkages are phosphodiester. Other units and linkages are bracketed, terminal groups are in braces. A string of capitals states the bases alone. e = 2'-O-(2-methoxyethyl) (MOE); [5mC] = 5-methylcytosine

Tests used:
mir-15a miRNA = experiment: pGL3-mir-15a sensor luciferase assay in HeLa cells; type: cell-based, human; settings: for Relative luciferase activity: pGL3-mir-15a sensor-expressing HeLa cells
Excerpt: In order to assess the ability of miRNAs to bind predicted miRNA binding sites and regulate the expression of the luciferase reporter, in some embodiments, expression systems based on the pGL3-Control (Promega Corp., Madison Wis.) reporter vector and comprising either a mir-15a, mir-21, or a mir-23b miRNA binding site were developed and used in transient transfections of HeLa cells to determine whether the endogenous mir-15a, mir-21, or mir-23b miRNAs, respectively, could repress luciferase reporter gene expression.
The pGL3-mir-15a sensor plasmid was created by cloning the sequence ([…]; SEQ ID NO: 369), complementary to the mir-15a miRNA, into the Xba site of the pGL3-Control plasmid, placing the potential miRNA-binding site in the 3′UTR of the luciferase reporter. This reporter plasmid was used to transfect HeLa cells and it was observed that the endogenous mir-15a miRNA was able to inhibit luciferase expression from the pGL3-mir-15a sensor plasmid. Thus, to further evaluate the ability of the mir-15a miRNA to bind this target site encoded by the pGL3-mir-15a sensor plasmid, and to assess the ability of oligomeric compounds to interfere with mir-15a-mediated silencing, pGL3-mir-15a sensor-expressing HeLa cells were treated with varying concentrations (3-, 10- or 30 nM) of the following oligomeric compounds: ISIS Number 327951 (SEQ ID NO: 369) is a uniform 2′-MOE compound targeting the mature mir-15a-1 miRNA. ISIS Numbers 356213 (SEQ ID NO: 878), 356215 (SEQ ID NO: 879), 356216 (SEQ ID NO: 880), 356218 (SEQ ID NO: 881), 356221 (SEQ ID NO: 882), 356227 (SEQ ID NO: 883) and 356229 (SEQ ID NO: 884) are phosphorothioate, uniform 2′-MOE oligomeric compounds designed and synthesized to target the entire length of the mir-15a pri-miRNA molecule (described in detail in Example 28, below). […] The data presented in Table 42 are the average of three trials and are presented as percent untreated control (luciferase plasmid only, not treated with oligomeric compound) luciferase expression, normalized to pRL-CMV levels.

mir-15a pri-miRNA = mir-15a pri-miRNA expression in T47D cells (real-time RT-PCR); type: cell-based, human
Excerpt: The gapmer oligomeric compounds targeting the mir-15b and mir-15-a-1 mature miRNAs described above were also transfected into T47D cells according to standard procedures. In addition, uniform 2′-MOE and 2′-MOE gapmer oligomeric compounds targeting the mature mir-15a-1 and mir-15b miRNAs were also transfected into T47D cells, for analysis of their effects on mir-15a-1 and mir-15b pri-miRNA levels. The oligomeric compounds ISIS Number 327927 (SEQ ID NO: 345), a uniform 2′-MOE compound and ISIS Number 345391 (SEQ ID NO: 345), a 2′-MOE 5-10-7 gapmer compound, both target mir-15b. The oligomeric compounds ISIS Number 327951 (SEQ ID NO: 369), a uniform 2′-MOE compound, and ISIS Number 345411 (SEQ ID NO: 369), a 2′-MOE 5-10-7 gapmer compound, both target mir-15a-1. Oligomeric compounds ISIS Number 129686 ([…]; SEQ ID NO: 901), and ISIS Number 129691 ([…]; SEQ ID NO:902), both universal scrambled controls, as well as ISIS Number 116847 ([…]; SEQ ID NO: 844) targeting an unrelated gene, PTEN, were used as negative controls. ISIS Numbers 129686, 129691, and 116847 are phosphorothiated 2′-MOE 5-10-5 gapmers, and all cytosines are 5-methylcytosines. T47D cells (seeded in 12-well plates) were treated with these oligomeric compounds, and RNA was isolated from the treated cells by lysing in 1 mL TRIZOL™ (Invitrogen) and total RNA was prepared using the manufacturer's recommended protocols. To assess the effects of these compounds on expression of the mir-15a or mir-15b pri-miRNA molecules, real-time RT-PCR analysis was performed using either the primer/probe set specific for the mir-15a pri-miRNA molecule described above, or a primer probe set specific for the mir-15b pri-miRNA molecule: ISIS 339320 ([…]; SEQ ID NO: 903) was used as the forward primer for the mir-15b pri-miRNA, ISIS 339321 ([…] ACTGT; SEQ ID NO: 904) was used as the reverse primer for the mir-15b pri-miRNA, and ISIS 339322 ([…]; SEQ ID NO: 905) was used as the probe. Total RNA was quantified using RiboGreen™ RNA quantification reagent (Molecular Probes, Inc. Eugene, Oreg.), expression levels observed for each target were normalized to 5.8S rRNA, and values are expressed relative to the untreated control. Inhibition of expression of the mir15a or mir-15b pri-miRNA molecules upon treatment with these oligomeric compounds is was assessed and expressed as a percentage of RNA levels in untreated control cells.
Using the real-time RT-PCR methods described, the expression levels of the mir-15a pri-miRNA were compared in T47D cells treated with the nested series of uniform 2′-MOE oligomeric compounds, targeting and spanning the entire length of the mir-15a pri-miRNA. The region encompassing the mir-15a primary transcript (the complement of nucleotides 31603159 to 31603468 of GenBank Accession number NT—024524.13; AAATAATTATG […]) is incorporated herein as SEQ ID NO: 906. ISIS Number 356215 (SEQ ID NO: 879) targets a region flanking and immediately 5′ to the predicted 5′ Drosha cleavage site in the mir-15a pri-miRNA. ISIS Number 356218 (SEQ ID NO: 881) targets aregion in the loop of the mir-15a pri-miRNA. ISIS 356227 (SEQ ID NO: 883) targets a region flanking and immediately 3′ to the predicted 3′ Drosha cleavage site in the mir-15a pri-miRNA. Additionally, oligomeric compound ISIS 327951 (SEQ ID NO: 369), a uniform 2′-MOE compound targeting the mature mir-15a-1 miRNA, was tested for comparison. Oligomeric compounds ISIS 327901 (SEQ ID NO: 319) targeting the mature mir-143 miRNA; ISIS 129690, ([…]; SEQ ID NO: 907), a phosphorothioate 5-10-5 MOE gapmer used as a universal scrambled control; and ISIS 116847 ([…]; SEQ ID NO: 844), a uniform 5-10-52′-MOE gapmer targeting an unrelated gene, PTEN, were used as negative controls. Using the transfection methods previously described, T47D cells were treated with 100 nM of each of these oligomeric compounds. […]

| Substance | luciferase activity from the pGL3-mir-15a sensor plasmid (mir-15a miRNA; HeLa, 3-, 10- or 30 nM) | levels of the mir-15a pri-miRNA molecule (mir-15a pri-miRNA; 100 nM) | Relative luciferase activity (mir-15a miRNA; 3 nM) | Relative luciferase activity (mir-15a miRNA; 10 nM) | Relative luciferase activity (mir-15a miRNA; 30 nM) | mir-15a pri-miRNA expression % UTC (mir-15a pri-miRNA; real-time RT-PCR) [% UTC] |
| --- | --- | --- | --- | --- | --- | --- |
| CACAAACCATTATGTGCTGCTA (chemistry not given here) [ISIS 327951, uniform 2′-MOE PS; targets mir-15a-1] | blocked the inhibitory effect of mir-15a | stimulate an increase in levels of the mir-15a pri-miRNA molecule |  |  |  |  |
| 356213 (eT*eA*eT*eA*eA*e[5mC]*eA*eT*eT*eG*eA*eT*eG*eT*eA*eA*eT*eA*eT*eG) [compound 356213] |  |  | 101.2 | 80.5 | 109.9 | 171 |
